Here are results for one compound from article PMC13274462, “Growth of Corynebacterium glutamicum on 5-oxo-L-proline (pyroglutamate) as a carbon and nitrogen source requires the PxpR-controlled pxpTABC genes” (Applied and Environmental Microbiology, 2026).

This assay has as its target T1, PxpR (Corynebacterium glutamicum, UniProt Q8NRP0).
T1 construct: gene Cgl1008; PxpR protein with a C-terminal Strep-tag-II (PxpR-Strep)
T1 sequence (Q8NRP0 11-227): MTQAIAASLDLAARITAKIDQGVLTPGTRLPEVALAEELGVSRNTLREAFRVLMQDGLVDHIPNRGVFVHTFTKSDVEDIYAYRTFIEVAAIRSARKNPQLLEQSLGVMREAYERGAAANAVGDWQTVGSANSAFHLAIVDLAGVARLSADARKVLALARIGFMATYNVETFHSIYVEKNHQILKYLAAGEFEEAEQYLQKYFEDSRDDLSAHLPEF
The assay can be described thus: isothermal titration calorimetry (ITC) with purified PxpR-Strep, […]°C, pH […]. Format: binding. On the technique in general: ITC needs no label: the signal is the heat of the interaction.

Each structure is given as a SMILES string.

The compound `O=C1CC[C@@H](C(=O)O)N1` [5-OP, 5-oxo-L-proline] displayed a Kd of 726 ± 23 nM.

One may read the Kd as the constant that tells how readily two partners part at equilibrium.
